Results on one molecule are retold here after patent US6037334A, “Phosphonates, process for preparing the same and medicaments” (Roche Diagnostics GmbH, priority 1996, dated 2000).

One test concerns citrate plasma. Kind of test: Activated Partial Thromboplastin Time (APTT). Conditions: difference to the control, 37° C. It counts as biochemical, human. The protocol:
(§1) 9 parts of fresh blood from healthy donors was mixed with one part of sodium citrate solution (0.11 mol/l) and it was centrifuged for 10 minutes at room temperature at ca. 3000 r.p.m. The plasma was removed by pipette and can be stored at room temperature for ca. 8 hours.
Activated Partial Thromboplastin Time (APTT)
100 μl citrate plasma and 100 μl APTT reagent (Stago Diagnostics/Boehringer Mannheim GmbH; contains cephalin lyophilisate with a microcrystalline kieselguhr activator) are incubated for 3 minutes at 37° C. together with 10 μl dimethylsulfoxide (DMSO) or 10 μl of a solution of the active substance in DMSO in a ball coagulometer (KC10 from the Amelung Company). On addition of 100 μl 0.025 M calcium chloride solution a stopwatch is started and the time at which coagulation starts is determined. The APTT is ca. 28-35 seconds in the control measurements and is extended by the active substances. If no coagulation occurred in the measurements after 5 minutes the experiment was stopped (>300).
The measured APTT times in seconds are given in table 1 as a difference to the control. The concentrations of the active substances in the final volume were 100 μM (APTT 100), 10 μM (APTT 10), 1 μM (APTT 1), 0.1 μM (APTT 0.1).

A further test deals with horse thrombin. As to the kind of experiment: Thrombin Time. In kind it is biochemical. The following applies: 500 μM final; difference to the control; 37° C.; citrate plasma, ca. 3 U/ml horse thrombin. The protocol: as §1
200 μl citrate plasma is incubated for 2 minutes at 37° C. in a ball coagulometer (KC10 from the Amelung Company). 10 μl dimethylsulfoxide (DMSO) or a solution of the active substance in DMSO is added to 190 μl pre-heated thrombin reagent (Boehringer Mannheim GmbH; contains ca. 3 U/ml horse thrombin and 0.0125 M Ca^++). On addition of 200 μl of this solution to the plasma a stopwatch is started and the time at which coagulation starts is determined. The thrombin time is ca. 24 sec. in control measurements and is extended by the active substances. If no coagulation occurred in the measurements after 5 minutes the experiment was stopped (>300).
The measured thrombin times in seconds are given in table 1 as a difference to the control. The concentrations of the active substances in the final volume were 500 μM (TT 500).

A further test has as its target human factor Xa (Homo sapiens, UniProt P00742). As to the kind of experiment: biochemical.

Structures are written as SMILES. Counter-ions that a name gives are not always drawn. Some results are limits rather than exact numbers.

Sequence of human factor Xa (P00742 235-488 limits assumed): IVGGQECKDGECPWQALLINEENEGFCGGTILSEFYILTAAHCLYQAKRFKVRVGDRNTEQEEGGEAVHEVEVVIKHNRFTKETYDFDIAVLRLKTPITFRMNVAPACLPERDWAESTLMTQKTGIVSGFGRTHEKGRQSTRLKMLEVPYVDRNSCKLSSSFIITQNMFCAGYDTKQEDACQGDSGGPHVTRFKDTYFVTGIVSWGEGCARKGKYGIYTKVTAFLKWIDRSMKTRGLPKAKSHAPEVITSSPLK
Sequence of human factor Xa (P00742 41-179 partner limits assumed): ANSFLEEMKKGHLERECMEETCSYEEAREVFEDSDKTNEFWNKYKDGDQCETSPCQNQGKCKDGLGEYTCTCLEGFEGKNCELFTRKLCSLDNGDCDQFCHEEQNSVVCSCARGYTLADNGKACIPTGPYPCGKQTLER
Experimental for human factor Xa: The kinetic measurements were carried out at pH=7.5 and 25° C. in 0.1 M phosphate buffer that contained 0.2 M sodium chloride and 0.5% polyethylene glycol 6000 (see below for preparation) in polystyrene semi-microcuvettes in a total volume of 1 ml. The reactions were started by addition of enzyme to pre-incubated solutions that contained either dimethyldisulfoxide (control) or solutions of the test substance in DMSO (inhibitor stock solutions: 10 mM in DMSO). The increase in absorbance at 405 nm due to the release of p-nitroaniline from the substrate was monitored over a time period of 12 minutes.
The inhibition constants Ki were determined as follows. […] KM and Vmax were determined from a measurement series (constant inhibitor concentration, variable substrate concentrations) by a non-linear fit to the equation [formula]
The Ki value is obtained by non-linear regression from the entire series of measurements with 16 sets of data (measurements at 4 different substrate concentrations and each with 4 different inhibitor concentrations) from the equation [formula] in which VMax denotes the maximum rate in the absence of an inhibitor, KM denotes the Michaelis constant and [S] the substrate concentration. […]

For `CCOP(=O)(OCC)C(Oc1ccc2ccc(C(=N)N)cc2c1)c1ccc(OC2CCN(C(C)=N)CC2)cc1` (stereo not drawn) [Example 1, (7-Carbamimidoyl-naphthalen-2-yloxy)-[{4-[1-(1-imino-ethyl)-piperidin-4-yloxy]-phenyl}-methyl)-phosphonic acid diethyl ester-dihydrochloride], the “APTT 0.1” value in the test with citrate plasma (0.1 μM final) came to 8 s. Further, in the test with citrate plasma (1 μM final), the “APTT 1” value worked out at 45 s. Further, in the test on citrate plasma (10 μM final, >300 = no coagulation after 5 minutes), the “APTT 10” value is over 300 s. In the test with citrate plasma (100 μM final, >300 = no coagulation after 5 minutes), the “APTT 100” value was over 300 s. For the same molecule, the “TT 500” value in the test on horse thrombin was found to be 49 s. In addition, the Ki (as a rule, the dissociation constant of the complex between target and ligand, obtained from inhibition or displacement) at human factor Xa is 2 nM.
